From patent US8546320B2, “Hsp9O-targeted anti-cancer chimeric peptide” (Kyoto University, priority 2008, dated 2013) come the findings set out here.

Where a SMILES comes first, the peptide text is derived from it.

For test [1], the system named is Caki-1. The class given is cell-based, human. To be noted: Caki-1; for Anti-cancer activity (% relative to wild-type peptide) / Decrease in cell survival rate (% relative to wild-type peptide): wild-type peptide = 100%.
For test [2], the system named is cancer cells. As to the kind of experiment: Cell viability assay, summary statements on cancer cells. The class given is cell-based. The following applies: single mutation in TPR or Antp region of Antp-TPR.
In test [3] the test system is U937. As to the kind of experiment: cells. The class given is cell-based, human. The following applies: for killing effect compared with the wild-type peptide / Anti-cancer activity (% relative to wild-type peptide) / Decrease in cell survival rate (% relative to wild-type peptide): U937; for Anti-cancer activity (% relative to wild-type peptide) / Decrease in cell survival rate (% relative to wild-type peptide): wild-type peptide = 100%. As to the method: A total of 3×10^3 cells per well were inoculated onto a 96 well plate, and incubated in a medium containing 10% FBS with 100 μl of a peptide diluted stepwise at 37° C. for 48 to 72 hours. The survival rate of the cells was measured by using WST-8 solution (Cell Count Reagent SF; Nacalai Tesque, Inc.).

Consider `CC[C@H](C)[C@H](NC(=O)[C@H](CCCNC(=N)N)NC(=O)[C@H](C)NC(=O)[C@H](Cc1ccc(O)cc1)NC(=O)[C@H](C)NC(=O)[C@H](CCCCN)NC(=O)[C@H](CCCCN)NC(=O)[C@H](CCCCN)NC(=O)[C@H](Cc1c[nH]c2ccccc12)NC(=O)[C@H](CCCCN)NC(=O)[C@H](CCSC)NC(=O)[C@H](CCCCN)NC(=O)[C@H](CCCNC(=N)N)NC(=O)[C@H](CC(N)=O)NC(=O)[C@H](CCC(N)=O)NC(=O)[C@H](Cc1ccccc1)NC(=O)[C@H](Cc1c[nH]c2ccccc12)NC(=O)[C@@H](NC(=O)[C@H](CCCCN)NC(=O)[C@@H](NC(=O)[C@H](CCC(N)=O)NC(=O)[C@@H](N)CCCNC(=N)N)[C@@H](C)CC)[C@@H](C)CC)C(=O)NCC(=O)N[C@@H](CC(N)=O)C(=O)N[C@@H](CO)C(=O)N[C@@H](Cc1ccc(O)cc1)C(=O)N[C@@H](Cc1ccccc1)C(=O)N[C@@H](CCCCN)C(=O)O` [Antp R11K-TPR] (H-RQIKIWFQNRKMKWKKKAYARIGNSYFK-OH; N-terminus and C-terminus assumed), for which, in test [1], the “killing effect compared with the wild-type peptide” value is given as “stronger than that of the wild-type peptide”, the “Anti-cancer activity (% relative to wild-type peptide)” value was 104.39% and the “Decrease in cell survival rate (% relative to wild-type peptide)” value (“Decrease … (% relative to wild-type peptide)” below) is listed as 158.09%. In addition, the “effect compared with the wild-type protein (summary of mutations)” value in test [2] is “effect similar to that of the wild-type protein”.
On to `CC[C@H](C)[C@H](NC(=O)[C@H](CCCNC(=N)N)NC(=O)[C@H](C)NC(=O)[C@H](Cc1ccc(O)cc1)NC(=O)[C@H](C)NC(=O)[C@H](CCCCN)NC(=O)[C@H](CCCCN)NC(=O)[C@H](CCCCN)NC(=O)[C@H](Cc1c[nH]c2ccccc12)NC(=O)[C@H](CCCCN)NC(=O)[C@H](CCSC)NC(=O)[C@H](CCCNC(=N)N)NC(=O)[C@H](CCCNC(=N)N)NC(=O)[C@H](CC(N)=O)NC(=O)[C@H](CCC(N)=O)NC(=O)[C@H](Cc1ccccc1)NC(=O)[C@H](Cc1ccc(O)cc1)NC(=O)[C@@H](NC(=O)[C@H](CCCCN)NC(=O)[C@@H](NC(=O)[C@H](CCC(N)=O)NC(=O)[C@@H](N)CCCNC(=N)N)[C@@H](C)CC)[C@@H](C)CC)C(=O)NCC(=O)N[C@@H](CC(N)=O)C(=O)N[C@@H](CO)C(=O)N[C@@H](Cc1ccc(O)cc1)C(=O)N[C@@H](Cc1ccccc1)C(=O)N[C@@H](CCCCN)C(=O)O` [Antp W6Y-TPR] (H-RQIKIYFQNRRMKWKKKAYARIGNSYFK-OH; N-terminus and C-terminus assumed), for which, in test [1], the “Anti-cancer activity (% relative to wild-type peptide)” value came to 32.99% and the “Decrease … (% relative to wild-type peptide)” value is 15.14%. The “effect compared with the wild-type protein (summary of mutations)” value in test [2] is recorded as “effective but with an effect lower than the wild-type protein”.
For `CC[C@H](C)[C@H](NC(=O)[C@H](CCCNC(=N)N)NC(=O)[C@H](C)NC(=O)[C@H](Cc1ccc(O)cc1)NC(=O)[C@H](C)NC(=O)[C@H](CCCCN)NC(=O)[C@H](CCCCN)NC(=O)[C@H](CCCCN)NC(=O)[C@H](Cc1ccc(O)cc1)NC(=O)[C@H](CCCCN)NC(=O)[C@H](CCSC)NC(=O)[C@H](CCCNC(=N)N)NC(=O)[C@H](CCCNC(=N)N)NC(=O)[C@H](CC(N)=O)NC(=O)[C@H](CCC(N)=O)NC(=O)[C@H](Cc1ccccc1)NC(=O)[C@H](Cc1c[nH]c2ccccc12)NC(=O)[C@@H](NC(=O)[C@H](CCCCN)NC(=O)[C@@H](NC(=O)[C@H](CCC(N)=O)NC(=O)[C@@H](N)CCCNC(=N)N)[C@@H](C)CC)[C@@H](C)CC)C(=O)NCC(=O)N[C@@H](CC(N)=O)C(=O)N[C@@H](CO)C(=O)N[C@@H](Cc1ccc(O)cc1)C(=O)N[C@@H](Cc1ccccc1)C(=O)N[C@@H](CCCCN)C(=O)O` [Antp W14Y-TPR] (H-RQIKIWFQNRRMKYKKKAYARIGNSYFK-OH; N-terminus and C-terminus assumed), in that order: 83.36%, 41.80% and “effect similar to that of the wild-type protein”.
With `CC[C@H](C)[C@H](NC(=O)[C@H](CCCNC(=N)N)NC(=O)[C@H](C)NC(=O)[C@H](Cc1ccc(O)cc1)NC(=O)CNC(=O)[C@H](CCCCN)NC(=O)[C@H](CCCCN)NC(=O)[C@H](CCCCN)NC(=O)[C@H](Cc1c[nH]c2ccccc12)NC(=O)[C@H](CCCCN)NC(=O)[C@H](CCSC)NC(=O)[C@H](CCCNC(=N)N)NC(=O)[C@H](CCCNC(=N)N)NC(=O)[C@H](CC(N)=O)NC(=O)[C@H](CCC(N)=O)NC(=O)[C@H](Cc1ccccc1)NC(=O)[C@H](Cc1c[nH]c2ccccc12)NC(=O)[C@@H](NC(=O)[C@H](CCCCN)NC(=O)[C@@H](NC(=O)[C@H](CCC(N)=O)NC(=O)[C@@H](N)CCCNC(=N)N)[C@@H](C)CC)[C@@H](C)CC)C(=O)NCC(=O)N[C@@H](CC(N)=O)C(=O)N[C@@H](CO)C(=O)N[C@@H](Cc1ccc(O)cc1)C(=O)N[C@@H](Cc1ccccc1)C(=O)N[C@@H](CCCCN)C(=O)O` [Antp-A2G] (H-RQIKIWFQNRRMKWKKKGYARIGNSYFK-OH; N-terminus and C-terminus assumed), in test [1], the “Anti-cancer activity (% relative to wild-type peptide)” value worked out at 100.70% and the “Decrease … (% relative to wild-type peptide)” value is listed as 105.96%. Further, in test [3], the “Cell Survival Rate (%)” value was determined as 13.90%, the “killing effect compared with the wild-type peptide” value was “increase in effect”, the “Anti-cancer activity (% relative to wild-type peptide)” value is 112.17% and the “Decrease … (% relative to wild-type peptide)” value is recorded as 167.23%. Also, in test [2], the “effect compared with the wild-type protein (summary of mutations)” value is recorded as “effect higher than the wild-type protein”.
Regarding `CC[C@H](C)[C@H](NC(=O)[C@H](CCCNC(=N)N)NC(=O)CNC(=O)[C@H](Cc1ccc(O)cc1)NC(=O)[C@H](C)NC(=O)[C@H](CCCCN)NC(=O)[C@H](CCCCN)NC(=O)[C@H](CCCCN)NC(=O)[C@H](Cc1c[nH]c2ccccc12)NC(=O)[C@H](CCCCN)NC(=O)[C@H](CCSC)NC(=O)[C@H](CCCNC(=N)N)NC(=O)[C@H](CCCNC(=N)N)NC(=O)[C@H](CC(N)=O)NC(=O)[C@H](CCC(N)=O)NC(=O)[C@H](Cc1ccccc1)NC(=O)[C@H](Cc1c[nH]c2ccccc12)NC(=O)[C@@H](NC(=O)[C@H](CCCCN)NC(=O)[C@@H](NC(=O)[C@H](CCC(N)=O)NC(=O)[C@@H](N)CCCNC(=N)N)[C@@H](C)CC)[C@@H](C)CC)C(=O)NCC(=O)N[C@@H](CC(N)=O)C(=O)N[C@@H](CO)C(=O)N[C@@H](Cc1ccc(O)cc1)C(=O)N[C@@H](Cc1ccccc1)C(=O)N[C@@H](CCCCN)C(=O)O` [Antp-A4G] (H-RQIKIWFQNRRMKWKKKAYGRIGNSYFK-OH; N-terminus and C-terminus assumed), in test [1], the “killing effect compared with the wild-type peptide” value was “stronger than that of the wild-type peptide”, the “Anti-cancer activity (% relative to wild-type peptide)” value is 108.40% and the “Decrease … (% relative to wild-type peptide)” value stood at 333.52%. In test [3], the “Cell Survival Rate (%)” value was determined as 11.42%, the “Anti-cancer activity (% relative to wild-type peptide)” value came out at 115.40% and the “Decrease … (% relative to wild-type peptide)” value is recorded as 203.46%. Further, in test [2], the “effect compared with the wild-type protein (summary of mutations)” value is recorded as “effect higher than the wild-type protein”.
`CC[C@H](C)[C@H](NC(=O)[C@H](CCCNC(=N)N)NC(=O)[C@H](C)NC(=O)[C@H](Cc1ccc(O)cc1)NC(=O)[C@H](C)NC(=O)[C@H](CCCCN)NC(=O)[C@H](CCCCN)NC(=O)[C@H](CCCCN)NC(=O)[C@H](Cc1c[nH]c2ccccc12)NC(=O)[C@H](CCCCN)NC(=O)[C@H](CCSC)NC(=O)[C@H](CCCNC(=N)N)NC(=O)[C@H](CCCNC(=N)N)NC(=O)[C@H](CC(N)=O)NC(=O)[C@H](CCC(N)=O)NC(=O)[C@H](Cc1ccccc1)NC(=O)[C@H](Cc1c[nH]c2ccccc12)NC(=O)[C@@H](NC(=O)[C@H](CCCCN)NC(=O)[C@@H](NC(=O)[C@H](CCC(N)=O)NC(=O)[C@@H](N)CCCNC(=N)N)[C@@H](C)CC)[C@@H](C)CC)C(=O)NCC(=O)N[C@@H](CC(N)=O)C(=O)N[C@@H](CO)C(=O)N[C@@H](Cc1ccc(O)cc1)C(=O)N[C@@H](Cc1ccc(O)cc1)C(=O)N[C@@H](CCCCN)C(=O)O` [Antp-F11Y] (H-RQIKIWFQNRRMKWKKKAYARIGNSYYK-OH; N-terminus and C-terminus assumed): in test [1], the “killing effect compared with the wild-type peptide” value was “stronger than that of the wild-type peptide”, the “Anti-cancer activity (% relative to wild-type peptide)” value amounted to 110.50% and the “Decrease … (% relative to wild-type peptide)” value amounted to 820.08%. Besides, in test [3], the “Cell Survival Rate (%)” value is recorded as 1.10%, the “killing effect compared with the wild-type peptide” value is “increase in effect”, the “Anti-cancer activity (% relative to wild-type peptide)” value turned out to be 128.84% and the “Decrease … (% relative to wild-type peptide)” value worked out at 2116.95%. Moreover, the “effect compared with the wild-type protein (summary of mutations)” value in test [2] was “effect higher than the wild-type protein”.
As to `CC[C@H](C)[C@H](NC(=O)[C@H](CCCNC(=N)N)NC(=O)[C@H](C)NC(=O)[C@H](Cc1ccc(O)cc1)NC(=O)[C@H](C)NC(=O)[C@H](CCCCN)NC(=O)[C@H](CCCCN)NC(=O)[C@H](CCCCN)NC(=O)[C@H](Cc1c[nH]c2ccccc12)NC(=O)[C@H](CCCCN)NC(=O)[C@H](CCSC)NC(=O)[C@H](CCCNC(=N)N)NC(=O)[C@H](CCCNC(=N)N)NC(=O)[C@H](CC(N)=O)NC(=O)[C@H](CCC(N)=O)NC(=O)[C@H](Cc1ccccc1)NC(=O)[C@H](Cc1c[nH]c2ccccc12)NC(=O)[C@@H](NC(=O)[C@H](CCCCN)NC(=O)[C@@H](NC(=O)[C@H](CCC(N)=O)NC(=O)[C@@H](N)CCCCN)[C@@H](C)CC)[C@@H](C)CC)C(=O)NCC(=O)N[C@@H](CC(N)=O)C(=O)N[C@@H](CO)C(=O)N[C@@H](Cc1ccc(O)cc1)C(=O)N[C@@H](Cc1ccccc1)C(=O)N[C@@H](CCCCN)C(=O)O` [Antp-R1K-TPR] (H-KQIKIWFQNRRMKWKKKAYARIGNSYFK-OH; N-terminus and C-terminus assumed), in test [1], the “Anti-cancer activity (% relative to wild-type peptide)” value stood at 64.10% and the “Decrease … (% relative to wild-type peptide)” value turned out to be 24.98%. Moreover, the “effect compared with the wild-type protein (summary of mutations)” value in test [2] is given as “effective but with an effect lower than the wild-type protein”.
